Data taken from publication PMC3141655 (BMC Biochemistry, 2011).
Where two headings read alike, the source gives them in different places.

Key:
[1] = molecular target: T1, StOASS (O-acetylserine sulfhydrylase) (Salmonella typhimurium, UniProt P0A1E3)
Procedure: (§1) Isothermal titration calorimetry (ITC) experiments were performed using a Nano-ITC (TA-Instruments). OASS was dialyzed at 25°C in 20 mM Tris buffer (pH 8.0) and 50 mM NaCl. Buffer solutions were degassed at room temperature prior to use. […] The heat of dilution for each injection was determined using buffer in the cell. Data obtained from the titration of ligands with OASS were analyzed using either a two-sites binding model (eqn 2)(2) [drawing 2]
(§2) Qi^tot is total heat after the i^th injection, V0 is the volume of calorimetric cell, K1 and K2 are the observed equilibrium constants for each site, and ΔH1 and ΔH2 are the corresponding enthalpy changes. Estimates of Kobs and ΔH were obtained by fitting the experimental data to the model and the best-fit parameters were selected based on the lowest Chi-squared values.

[2] = molecular target: T1, StOASS (O-acetylserine sulfhydrylase); test: PLP fluorescence titration of ligands with StOASS; assay type: binding; design: His tag (N); made in house; host or cells: E. coli BL21(DE3), pET28a(+); settings: for N (number of binding sites) / Qmax (maximum fluorescence quenching at saturation) / ΔG / Kobs / Qmax: 20 mM Tris pH 8.0; for Kd: from K1,obs and K2,obs of the PLP fluorescence titration, read-out: Kd
Procedure: Titrations of ligands with StOASS were examined by monitoring changes in the active site pyridoxal 5'phosphate (PLP) fluorescence of OASS using a Varian spectrofluorometer. The excitation and emission wavelengths for monitoring PLP signal change upon ligand binding were 412 nm and 507 nm respectively. All experiments were done at 23.0 ± 1°C. Slit widths were set to 5 nm for all experiments and PMT voltage was adjusted to get maximum signal for a given protein concentration. Initial readings of both the sample, Fsamp,0 and buffer, Fbuf,0 were taken, with F0 = Fsamp,0-Fbuf,0 defined as the initial fluorescence of the sample. The sample cuvette was then titrated with aliquots of ligands and mixed, equilibrated for 2-5 minutes before measurement. Data points from five such measurements were averaged to obtain Fave,i. The relative fluorescence quenching upon ligand binding is defined as Qobs,i = (F0-Fobs,i)/F0. All measurements were corrected for dilution, and inner filter effects.
Binding of ligands to OASS was analyzed to obtain the equilibrium binding constant, Kobs = [PL]/[P]*[L], using a single or two independent site binding models (eqn 1)(1) [drawing 1]
Where n, number of binding sites, Qobs, observed fluorescence quenching and Qmax, the maximum fluorescence quenching at saturation.

[3] = molecular target: T2, HiOASS (O-acetylserine sulfhydrylase) (Haemophilus influenzae, UniProt P45040); test: PLP fluorescence titration of ligands with HiOASS; assay type: binding; design: His tag (N); made in house; host or cells: E. coli BL21(DE3), pET28a(+); settings: 20 mM Tris pH 8.0
[4] = molecular target: T2, HiOASS (O-acetylserine sulfhydrylase); settings: for TdS / ΔG / ΔH: 20 mM Tris pH 8.0, 50 mM NaCl
Procedure: as §1, §2

[5] = 10°C, 20 mM Tris pH 8.0, 50 mM NaCl
[6] = 10°C, 20 mM Tris pH 8.0, 50 mM NaCl, two independent sites model
[7] = 15°C, 20 mM Tris pH 8.0, 50 mM NaCl
[8] = 20°C, 20 mM Tris pH 8.0, 50 mM NaCl
[9] = 25°C, 20 mM Tris pH 8.0, 50 mM NaCl
[10] = 30°C, 20 mM Tris pH 8.0, 50 mM NaCl
[11] = 35°C, 20 mM Tris pH 8.0, 50 mM NaCl
[12] = from dependence of enthalpy on temperature
[13] = [NaCl] 0.02 M, similar for each of two sites
[14] = temperature not stated in the sentence (values match 30°C of Table 1)

T2 sequence (P45040 whole entry): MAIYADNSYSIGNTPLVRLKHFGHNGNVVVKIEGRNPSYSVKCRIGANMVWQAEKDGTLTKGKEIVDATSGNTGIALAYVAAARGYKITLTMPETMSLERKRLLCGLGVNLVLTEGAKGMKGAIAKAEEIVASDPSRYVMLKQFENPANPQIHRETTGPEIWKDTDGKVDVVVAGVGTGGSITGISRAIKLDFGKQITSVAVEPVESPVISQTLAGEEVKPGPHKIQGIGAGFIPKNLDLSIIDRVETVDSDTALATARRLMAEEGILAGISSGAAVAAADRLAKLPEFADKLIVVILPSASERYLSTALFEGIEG
T1 sequence (P0A1E3 whole entry): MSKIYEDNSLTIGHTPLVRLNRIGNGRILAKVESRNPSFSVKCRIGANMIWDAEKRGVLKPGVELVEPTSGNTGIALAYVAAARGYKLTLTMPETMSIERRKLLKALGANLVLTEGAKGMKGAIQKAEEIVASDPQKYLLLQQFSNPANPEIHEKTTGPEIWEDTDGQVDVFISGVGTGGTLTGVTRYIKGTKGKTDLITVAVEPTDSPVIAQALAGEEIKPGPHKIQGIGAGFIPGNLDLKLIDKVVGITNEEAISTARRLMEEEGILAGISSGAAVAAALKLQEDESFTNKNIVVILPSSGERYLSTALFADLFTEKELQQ

## N[C@@H](CS)C(=O)O [Cysteine, L-cysteine]
[1]; [5]
  TdS: 6.9 kJ/mol
  ΔH: -2.7 ± 0.1 kJ/mol
[1]; [6]
  ΔG: -9.6 ± 0.4 kJ/mol
[1]; [7]
  TdS: 6.8 kJ/mol
  ΔG: -9.6 ± 0.3 kJ/mol
  ΔH: -2.8 ± 0.1 kJ/mol
[1]; 20°C
  TΔS: 3.4 kJ/M
  ΔH: -6.4 ± 0.1 kJ/M
[1]; [8]
  TdS: 3.4 kJ/mol
  ΔG: -9.8 ± 0.1 kJ/mol
  ΔH: -6.4 ± 0.1 kJ/mol
[1]; [9]
  TdS: 4.7 kJ/mol
  ΔG: -10.6 ± 0.1 kJ/mol
  ΔH: -5.9 ± 0.1 kJ/mol
[1]; [10]
  TdS: 5.8 kJ/mol
  ΔG: -10.2 ± 0.2 kJ/mol
  ΔH: -4.4 ± 0.2 kJ/mol
[1]; [11]
  TdS: 5.6 kJ/mol
  ΔG: -11.0 ± 0.2 kJ/mol
  ΔH: -5.4 ± 0.3 kJ/mol
[1]; [12]
  net heat capacity change ΔCp: -130 JK^-1M^-1
[2]; [NaCl] 0.02-0.5 M
  dlogK/dlog [NaCl]: ~ -0.21 ± 0.1
[2]; [NaCl] 0.02 M
  N (number of binding sites): 2
  Qmax (maximum fluorescence quenching at saturation): 3.8
  ΔG: -15.0 ± 0.1 kJ/mol
[2]; [13]
  Kobs: 6.0 ± 0.1 × 10^2 M^-1
[2]; [NaCl] 0.02 M, similar for each of two sites, listed as cysteine
  Kobs: 600 M⁻¹
[2]; [NaCl] 0.05 M
  Kobs: 5.6 ± 0.1 × 10^2 M^-1
  N (number of binding sites): 2
  Qmax: 4.6
  ΔG: -14.9 ± 0.1 kJ/mol
[2]; [NaCl] 0.1 M
  Kobs: 4.5 ± 0.1 × 10^2 M^-1
  N (number of binding sites): 2
  Qmax: 4.6
  ΔG: -14.3 ± 0.1 kJ/mol
[2]; [NaCl] 0.2 M
  Kobs: 3.7 ± 0.1 × 10^2 M^-1
  N (number of binding sites): 2
  Qmax: 4.5
  ΔG: -13.9 ± 0.1 kJ/mol
[2]; [NaCl] 0.5 M
  Kobs: 2.6 ± 0.1 × 10^2 M^-1
  N (number of binding sites): 2
  Qmax: 4.7
  ΔG: -13.0 ± 0.1 kJ/mol
[2]
  Kd: ~1.7 mM
[3]; [NaCl] 0.02 M
  Kobs: 6.6 ± 0.1 × 10^2 M^-1
  N (number of binding sites): 2
  Qmax: 3.9
  ΔG: -15.2 ± 0.1 kJ/mol
[3]; [NaCl] 0.05 M
  Kobs: 5.6 ± 0.1 × 10^2 M^-1
  N (number of binding sites): 2
  Qmax: 5.7
[3]; [NaCl] 0.1 M
  Kobs: 4.5 ± 0.1 × 10^1 M^-1
  N (number of binding sites): 2
  Qmax: 5.8
  ΔG: -9.0 ± 0.1 kJ/mol
[3]; [NaCl] 0.2 M
  Kobs: 3.1 ± 0.1 × 10^1 M^-1
  N (number of binding sites): 2
  Qmax: 5.8
  ΔG: -8.0 ± 0.1 kJ/mol
[3]; [NaCl] 0.5 M
  Kobs: 3.2 ± 0.1 × 10^1 M^-1
  N (number of binding sites): 2
  Qmax: 3.1
  ΔG: -8.0 ± 0.1 kJ/mol
[4]; 10°C
  TdS: 3.7 kJ/mol
  ΔG: -8.3 ± 0.4 kJ/mol
  ΔH: -4.6 ± 0.1 kJ/mol
[4]; 15°C
  TdS: 4.1 kJ/mol
  ΔG: -8.7 ± 0.2 kJ/mol
  ΔH: -4.6 ± 0.2 kJ/mol
[4]; 20°C
  TdS: 5.1 kJ/mol
  ΔG: -9.5 ± 0.5 kJ/mol
  ΔH: -4.4 ± 0.2 kJ/mol
[4]; 25°C
  TdS: 4.1 kJ/mol
  ΔG: -9.5 ± 0.5 kJ/mol
  ΔH: -5.4 ± 0.3 kJ/mol
[4]; 30°C
  TdS: 6.5 kJ/mol
  ΔG: -11.0 ± 0.3 kJ/mol
  ΔH: -4.5 ± 0.4 kJ/mol
[4]; [12]
  heat capacity change ΔCp: -12 JK^-1M^-1

## CSCC[C@H](N)C(=O)O [Methionine, L-methionine]
[1]; 25 mM HEPES, pH 8.0, 50 mM NaCl, 25°C
  ΔH: -0.4 ± 0.1 kJ/M
[1]; [5]
  TdS: 7.3 kJ/mol
  ΔH: -1.3 ± 0.1 kJ/mol
[1]; [6]
  ΔG: -8.6 ± 0.8 kJ/mol
[1]; [7]
  TdS: 7.2 kJ/mol
  ΔG: -8.6 ± 0.4 kJ/mol
  ΔH: -1.4 ± 0.1 kJ/mol
[1]; 20°C
  TΔS: 8.2 kJ/M
  ΔH: -1.5 ± 0.1 kJ/M
[1]; [8]
  TdS: 8.2 kJ/mol
  ΔG: -9.7 ± 0.5 kJ/mol
  ΔH: -1.5 ± 0.1 kJ/mol
[1]; [9]
  TdS: 8.6 kJ/mol
  ΔG: -9.5 ± 0.5 kJ/mol
  ΔH: -0.9 ± 0.1 kJ/mol
[1]; [10]
  TdS: 9.4 kJ/mol
  ΔG: -10.4 ± 0.8 kJ/mol
  ΔH: -1.0 ± 0.1 kJ/mol
[1]; [11]
  TdS: 10.1 kJ/mol
  ΔG: -11.3 ± 1.3 kJ/mol
  ΔH: -1.2 ± 0.1 kJ/mol
[1]; temperature not given
  net enthalpic contribution to total binding free energy: ~ 10%
[1]; [14]
  ΔG: -10.4 kJ/M
  ΔH: -1.0 ± 0.2 kJ/M
[2]; [NaCl] 0.02 M
  N (number of binding sites): 2
  Qmax (maximum fluorescence quenching at saturation): 3.8
  ΔG: -13.3 ± 0.1 kJ/mol
[2]; [13]
  Kobs: 2.9 ± 0.1 × 10^2 M^-1
[2]; [NaCl] 0.02 M, similar for each of two sites, listed as methionine
  Kobs: 290 M⁻¹
[2]; [NaCl] 0.1 M
  Kobs: 6.5 ± 0.1 × 10^1 M^-1
  N (number of binding sites): 2
  Qmax: 1.0
  ΔG: -10.0 ± 0.1 kJ/mol
[2]; [NaCl] 0.2 M
  Kobs: 5.5 ± 0.1 × 10^1 M^-1
  N (number of binding sites): 2
  Qmax: 1.4
  ΔG: -9.4 ± 0.1 kJ/mol
[2]; [NaCl] 0.5 M
  Kobs: 3.5 ± 0.1 × 10^1 M^-1
  N (number of binding sites): 2
  Qmax: 0.5
  ΔG: -8.7 ± 0.1 kJ/mol
[2]
  Kd: ~3.4 mM
[3]; [NaCl] 0.02 M
  Kobs: 1.5 ± 0.1 × 10^2 M^-1
  Qmax: 3.0
  ΔG: -11.8 ± 0.2 kJ/mol
[3]; [NaCl] 0.1 M
  Kobs: 5.8 ± 0.1 × 10^1 M^-1
  N (number of binding sites): 2
  Qmax: 0.5
  ΔG: -9.5 ± 0.5 kJ/mol
[3]; [NaCl] 0.2 M
  Kobs: 3.4 ± 0.1 × 10^1 M^-1
  N (number of binding sites): 2
  Qmax: 0.2
  ΔG: -8.1 ± 0.5 kJ/mol
[3]; [NaCl] 0.5 M
  Kobs: 2.3 ± 0.1 × 10^1 M^-1
  N (number of binding sites): 2
  Qmax: 0.2
  ΔG: -7.3 ± 0.6 kJ/mol
[4]
  enthalpic contribution to binding free energy: 8%
[4]; 10°C
  TdS: 7.1 kJ/mol
  ΔG: -7.2 ± 0.9 kJ/mol
  ΔH: -0.2 ± 0.1 kJ/mol
[4]; 15°C
  ΔG: -7.2 ± 0.9 kJ/mol
  ΔH: -0.2 ± 0.1 kJ/mol
[4]; 20°C
  TdS: 8.0 kJ/mol
  ΔG: -8.2 ± 1.0 kJ/mol
  ΔH: -0.2 ± 0.1 kJ/mol
[4]; 25°C
  TdS: 6.9 kJ/mol
  ΔG: -7.6 ± 1.1 kJ/mol
  ΔH: -0.8 ± 0.1 kJ/mol
[4]; 30°C
  TdS: 7.7 kJ/mol
  ΔG: -8.4 ± 1.0 kJ/mol
  ΔH: -0.7 ± 0.1 kJ/mol
